Results on two molecules are retold here after patent publication US20090298903A1, “USE OF TETRAMIC ACID DERIVATIVES FOR INSECT CONTROL” (priority 2006, published 2009).

Common to all, as to type: in vivo
One assay deals with Thrips palmi. The assay is described as follows: Example 4: aubergines against Thrips palmi. The settings on record: nymphs on leaves, (I-4) (240 SC + 0.2% rapeseed oil methyl ester) 0.0096 % a.s.; for Efficacy (% Abbott) 7 d after treatm. 3 / Efficacy (% Abbott) 14 d after treatm. 3 / Efficacy (% Abbott) 21 d after treatm. 3: Imidacloprid 0.01 % a.s.; for Efficacy (% Abbott) 4 d after treatm. 2: Imidacloprid (100 SL) 0.01 % a.s., three applications. How it is done: Plots 10 m^2 in size which are planted with aubergines cv. “Dumaguete Long Purple” are treated, in three replications, against Thrips palmi. The application is effected with a knapsack sprayer which is operated with pressurized air. Here, the active substance Example (I-4) (240 SC), in a tank mix together with 0.2% a.s. rapeseed oil methyl ester […] and the commercial standard Imidacloprid (100 SL), is tested at the specified application rates. The water application rate is 400 l/ha. Three applications are carried out at intervals of 8 and 7 days, respectively.
The test is evaluated in each case 4 days after treatment 2 and 7, 14 and 21 days after treatment 3 by scoring the destruction of the nymphs on the leaves.

Another assay deals with Carpocapsa pomonella. The assay is described as follows: Example 30: apple trees against Carpocapsa pomonella, fruit damage. As to conditions: 14 days after treatment 2, Imidacloprid (200 SC) 0.015 %, (I-4) (150 OD) 0.015 %. How it is done: Approx. 16-year-old apple trees cv. “Golden Delicious” are treated, in four replications, against Carpocapsa pomonella. The application is carried out with a spray diffuser. Here, the active substance Example (I-4) (150 OD) is applied in comparison with Imidacloprid (200 SC) at the specified application rates. Two applications are carried out at an interval of 16 days, with a water application rate of 1000 l/ha.
The test is evaluated 14 days after treatment 2 by scoring the fruit damage with the aid of the Abbott formula.

Another assay deals with Empoasca biguttula. The assay is described as follows: Example 16: aubergines against Empoasca biguttula. As to conditions: for Efficacy (% Abott) 2 d: 2 d after first treatment, nymphs, Imidacloprid (SL 100) 30, (I-4) (150 OD) 50, Profenofos (500 EC) 500 g a.s./ha, two applications, interval 7 days; for Efficacy (% Abott) 6 d: 6 d after first treatment; for Efficacy (% Abott) 6 d / Efficacy (% Abott) 13 d: Imidacloprid 30, (I-4) 50, Profenofos 500 g a.s./ha; for Efficacy (% Abott) 13 d: 13 d after first treatment. How it is done: Plots 10 m^2 in size which are planted with aubergines are treated, in three replications, against Empoasca biguttula. The application is carried out with a knapsack sprayer which is operated with pressurized air. Here, the active substance Example (I-4) (150 OD) is tested against the commercial standards Imidacloprid (SL 100) and Profenofos (500 EC) at the specified application rates. Two applications are carried out at an interval of 7 days. The water application rate is 750 l/ha.
The test is evaluated 2, 6 and 13 days after the first treatment by scoring the destruction rates of the animals (nymphs) on the plants.

The test system of the next assay is Idioscopus clypealis. The assay is described as follows: Example 14: mango tree against Idioscopus clypealis. The settings on record: nymphs on infructescences; for Efficacy (% Abbott) 7 days after treatment 4 / Efficacy (% Abbott) 7 days after treatment 5: Imidacloprid 0.00025 %, (I-4) 0.0016 %, Pymetrozine 0.002 %; for Efficacy (% Abbott) 7 days after treatment 3: Imidacloprid (100 SL) 0.00025 %, (I-4) (240 SC + 0.2% rapeseed oil methyl ester) 0.0016 %, Pymetrozine (WP 25) 0.002 %. How it is done:
A mango tree which is approximately 14 years old is treated, in three replications, against Idioscopus clypealis. The application is carried out with a high-pressure sprayer. Here, the active substance Example (I-4) (240 SC), in a tank mix with 0.2% a.s. rapeseed oil methyl ester (500 EW) and the commercial standards Imidacloprid (100 SL) and Pymetrozine (WP 25), is tested at the specified application rates. The amount of spray mixture is 10 l/tree. Five treatments are carried out at intervals of 7, 14, 21 and 28 days.
The test is evaluated in each case 7 days after treatments 3 to 5 by scoring the destruction rate of the nymphs on the infructescences.

For a further assay, the system named is Lygus spinolai. The assay is described as follows: Example 1A: field test on tea plants against Lygus spinolai. The settings on record: nymphs on shoots, Imidacloprid (10 WP) 0.005 % a.s., (I-4) (150 OD) 0.01 % a.s.; for Efficacy (% Abbott) 15 d: 15 d after treatment; for Efficacy (% Abbott) 29 d: 29 d after treatment. How it is done:
Plots approximately 4 m^2 in size which are planted with tea plants c.v. “Yabukita” are treated, in 3 replications, against Lygus spinolai. Here, the active substance Example (I-4) (150 OD) is tested at the specified application rate against the commercial standard Imidacloprid (10 WP) at the specified application rate. The application is effected with an engine-driven knapsack sprayer. Here, the treatment is carried out with a water application rate of 10 000 l/ha.
The test is evaluated 15 and 29 days after the treatment by determining the destruction of the nymphs on the shoots.

Another assay has as its system Dalbulus maidis. The assay is described as follows: Example 13: dwarf beans against Dalbulus maidis. The settings on record: nymphs on leaves, all 96 g a.s./ha; for Efficacy (% Abbott) 7 d: 7 d after second treatment, 240 SC + 0.1% rapeseed oil methyl ester, Imidacloprid 200 SL; for Efficacy (% Abbott) 11 d: 11 d after second treatment. Here is the method: Plots approx. 10 m^2 in size which are planted with dwarf beans cv. “Carioquinha” are treated, in three replications, against Dalbulus maidis. The application is carried out with a knapsack sprayer which is operated with pressurized air. Here, the active substances Example (I-4) (240 SC) and Example (I-9) (240 SC), in a tank mix with 0.1% a.s. rapeseed oil methyl ester (500 EW) and the commercial standard Imidacloprid (200 SL), are applied at the specified application rates. Two applications are carried out at an interval of 7 days, using a water application rate of 300 l/ha.
The test is evaluated 7 and 11 days after the second treatment by scoring the destruction rate of the animals (nymphs) on the leaves.

Assay [1] has as its system olive fruit fly (Dacus oleae). Nature of the assay: Example 22B: laboratory experiment, olives against olive fruit fly. The settings on record: olives treated three days after oviposition; Imidacloprid (200 SL) 0.01 %, (I-4) (100 OD) 0.02 %, Fenthion (500 EC) 0.05 %; untreated 84.4. Here is the method:
In a laboratory experiment, 40 olives are treated, in four replications, against the olive fruit fly (Dacus oleae) three days after oviposition. Here, the active substance (I-4) (100 OD) and the commercial standards Fenthion (500 EC) and Imidacloprid (200 SL) are tested at the specified application rates.
The test is evaluated 14 days after oviposition by counting the number of feeding tunnels (larval development completed), while the absence of such feeding tunnels indicates the efficacy against the larvae.

A further assay concerns Scirtothrips dorsalis. The assay is described as follows: Example 10: tea plants against Scirtothrips dorsalis. The settings on record: 7 d after treatment, nymphs, Ethiprole (SC10) 0.005, (I-4) (100 OD) 0.01, Imidacloprid (50 WG) 0.005 % a.s. How it is done:
Plots approx. 5 m^2 in size which are planted with tea plants cv. “Yabukita” which are approximately 18 years old are treated, in three replications, against Scirtothrips dorsalis. Here, the active substance Example (I-4) (100 OD) is tested, at the specified application rates, against the commercial standards Ethiprole (SC10 flowable) and Imidacloprid (50 WG). The application is carried out with a sprayer which is operated with pressurized air. The water application rate is 4500 l/ha. The test is evaluated 7 days after the treatment by scoring the destruction rate of the nymphs and the plants.

As for `CCOC(=O)OC1=C(c2cc(C)ccc2C)C(=O)N[C@]12CC[C@@H](OC)CC2` [Example (I-4)], in the assay on Thrips palmi, the “Efficacy (% Abbott) 7 d after treatm. 3” value turned out to be 75.0 % Abbott, the “Efficacy (% Abbott) 14 d after treatm. 3” value was found to be 82.8 % Abbott, the “Efficacy (% Abbott) 21 d after treatm. 3” value is 90.6 % Abbott and the “Efficacy (% Abbott) 4 d after treatm. 2” value turned out to be 82.9 % Abbott. The “Efficacy (% Abbott)” value with Carpocapsa pomonella is 73.7 % Abbott. Besides, in the assay with Empoasca biguttula, the “Efficacy (% Abott) 2 d” value amounted to 52.4 % Abott, the “Efficacy (% Abott) 6 d” value worked out at 56.0 % Abott and the “Efficacy (% Abott) 13 d” value is 66.7 % Abott. In addition, in the assay on Idioscopus clypealis, the “Efficacy (% Abbott) 7 days after treatment 4” value came out at 98.1 % Abbott, the “Efficacy (% Abbott) 7 days after treatment 5” value was 99.4 % Abbott and the “Efficacy (% Abbott) 7 days after treatment 3” value came out at 54.7 % Abbott. In the assay on Lygus spinolai, the “Efficacy (% Abbott) 15 d” value was determined as 92.9 % Abbott and the “Efficacy (% Abbott) 29 d” value amounted to 100 % Abbott. Moreover, in the assay with Dalbulus maidis, the “Efficacy (% Abbott) 7 d” value amounted to 73 % Abbott and the “Efficacy (% Abbott) 11 d” value came to 69 % Abbott. In addition, in assay [1], the “Number of feeding tunnels (%) 14 days after oviposition” value was determined as 3.1%. Moreover, in the assay on Scirtothrips dorsalis, the “Efficacy (% Abbott) 7 d” value was 100 % Abbott.

For the molecule `O=[N+]([O-])NC1=NCCN1Cc1ccc(Cl)nc1` [Imidacloprid], in the assay on Thrips palmi, the “Efficacy (% Abbott) 7 d after treatm. 3” value came to 75.0 % Abbott, the “Efficacy (% Abbott) 14 d after treatm. 3” value is 62.1 % Abbott, the “Efficacy (% Abbott) 21 d after treatm. 3” value is on record as 53.1 % Abbott and the “Efficacy (% Abbott) 4 d after treatm. 2” value is 82.9. % Abbott. In the assay with Carpocapsa pomonella, the “Efficacy (% Abbott)” value worked out at 26.3 % Abbott. Besides, in the assay with Empoasca biguttula, the “Efficacy (% Abott) 2 d” value turned out to be 38.1 % Abott, the “Efficacy (% Abott) 6 d” value turned out to be 71.6 % Abott and the “Efficacy (% Abott) 13 d” value came to 58.7 % Abott. In the assay with Idioscopus clypealis, the “Efficacy (% Abbott) 7 days after treatment 4” value is listed as 82.2 % Abbott, the “Efficacy (% Abbott) 7 days after treatment 5” value is listed as 86.4 % Abbott and the “Efficacy (% Abbott) 7 days after treatment 3” value amounted to 69.1 % Abbott. Moreover, in the assay with Lygus spinolai, the “Efficacy (% Abbott) 15 d” value is 35.7 % Abbott and the “Efficacy (% Abbott) 29 d” value is given as 48.1 % Abbott. Further, in the assay with Dalbulus maidis, the “Efficacy (% Abbott) 7 d” value was 82 % Abbott and the “Efficacy (% Abbott) 11 d” value was determined as 74 % Abbott. Also, the “Number of feeding tunnels (%) 14 days after oviposition” value in assay [1] was 11.9%. For the same molecule, the “Efficacy (% Abbott) 7 d” value in the assay on Scirtothrips dorsalis is recorded as 44.4 % Abbott.
